From patent US20100004259A1, “Tartrate Salt of (7S)-7-[(5-Fluoro-2-Methyl-Benzyl)oxy]-2-[(2R)-2-Methylpiperazin-1-YL]-6,7-Dihydro-5H-Cyclopenta[B]Pyridine” (Pfizer Inc., priority 2006, published 2010)

How the values were obtained:
[1] = hygroscopicity by dynamic vapor sorption; format: physicochemical
Procedure: Hygroscopicity was assessed using a dynamic vapor sorption technique in which an accurately weighed sample is subjected to progressively changing water vapor pressure while simultaneously recording the weight change. The experiment was conducted isothermally at 25° C.
Less than 0.5% increase in weight was detected at 90±2% relative humidity during an isothermal (25.1±0.1° C.) moisture sorption analysis conducted from approximately 1% to 90% (±2%) humidity. […] The amount of water vapor sorption may vary depending on the particle size and surface area of sample.

[2] = target: T1, 5HT2c (Homo sapiens, UniProt P28335); assay: receptor binding assay at human 5HT2c receptor; details: an amorphous salt of Formula I was tested
T1 sequence (P28335 33-458): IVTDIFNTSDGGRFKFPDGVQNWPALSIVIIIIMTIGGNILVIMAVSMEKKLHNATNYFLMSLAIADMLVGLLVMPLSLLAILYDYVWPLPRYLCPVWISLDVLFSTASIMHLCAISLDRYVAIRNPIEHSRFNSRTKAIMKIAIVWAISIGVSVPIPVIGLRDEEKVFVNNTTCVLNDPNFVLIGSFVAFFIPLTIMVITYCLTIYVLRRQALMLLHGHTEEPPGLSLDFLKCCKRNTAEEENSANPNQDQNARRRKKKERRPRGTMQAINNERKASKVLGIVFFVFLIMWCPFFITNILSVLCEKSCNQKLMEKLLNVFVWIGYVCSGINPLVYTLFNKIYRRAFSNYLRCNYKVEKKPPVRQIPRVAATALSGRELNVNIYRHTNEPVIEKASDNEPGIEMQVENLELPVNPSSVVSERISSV
Procedure: (§1) An amorphous salt of Formula I was tested in accordance with the binding assay procedures at human receptors provided in U.S. application Ser. No. 11/395,327, and the following receptor binding data for the compound of Formula I was obtained: […]

[3] = target: T2, 5HT2a (Homo sapiens, UniProt P28223); assay: receptor binding assay at human 5HT2a receptor; details: an amorphous salt of Formula I was tested
T2 sequence (P28223 whole entry): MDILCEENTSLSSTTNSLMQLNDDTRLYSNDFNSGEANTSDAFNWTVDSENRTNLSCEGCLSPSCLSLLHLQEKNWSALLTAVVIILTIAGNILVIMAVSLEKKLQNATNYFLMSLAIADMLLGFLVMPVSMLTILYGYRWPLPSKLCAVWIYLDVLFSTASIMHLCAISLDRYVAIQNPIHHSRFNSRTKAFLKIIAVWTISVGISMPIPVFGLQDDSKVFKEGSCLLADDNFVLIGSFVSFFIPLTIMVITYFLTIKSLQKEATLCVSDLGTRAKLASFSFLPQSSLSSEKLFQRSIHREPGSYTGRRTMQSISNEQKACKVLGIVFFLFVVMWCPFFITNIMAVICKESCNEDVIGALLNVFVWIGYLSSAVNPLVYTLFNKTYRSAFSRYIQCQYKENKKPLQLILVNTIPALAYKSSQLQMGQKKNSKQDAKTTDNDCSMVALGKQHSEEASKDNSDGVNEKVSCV

[4] = target: T3, 5HT2b (Homo sapiens, UniProt P41595); assay: receptor binding assay at human 5HT2b receptor; details: an amorphous salt of Formula I was tested
T3 sequence (P41595 whole entry): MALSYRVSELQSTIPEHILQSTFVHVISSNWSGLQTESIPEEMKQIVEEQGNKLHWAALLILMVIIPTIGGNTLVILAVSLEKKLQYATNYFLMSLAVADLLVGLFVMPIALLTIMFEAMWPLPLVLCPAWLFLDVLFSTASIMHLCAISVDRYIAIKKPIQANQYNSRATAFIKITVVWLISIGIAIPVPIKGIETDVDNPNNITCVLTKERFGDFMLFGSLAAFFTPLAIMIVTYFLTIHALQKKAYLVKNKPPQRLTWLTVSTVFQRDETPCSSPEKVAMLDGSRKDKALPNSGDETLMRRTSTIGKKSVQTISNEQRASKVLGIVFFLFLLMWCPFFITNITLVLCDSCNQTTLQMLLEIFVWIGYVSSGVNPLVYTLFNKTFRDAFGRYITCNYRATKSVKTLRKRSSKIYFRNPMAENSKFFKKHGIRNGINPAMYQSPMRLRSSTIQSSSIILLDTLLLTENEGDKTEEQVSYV
Procedure: as §1

[5] = target: T1, 5HT2c; assay: functional activity at the 5-HT2c receptor
Text: (§2) Formula I of the present invention is functionally selective for 5-HT2c against 5-HT2a and 5-HT2b, by virtue of its much greater agonistic potency (lower EC50) for 5-HT2c than that observed for 5-HT2a and/or 5-HT2b or its lack of agonistic activity at 5-HT2a and/or 5-HT2b.

[6] = target: T2, 5HT2a; assay: functional activity at the 5-HT2a receptor
Text: as §2

[7] = target: T3, 5HT2b; assay: functional activity at the 5-HT2b receptor
Text: as §2

[8] = cited from earlier work
[9] = cited from earlier work; remark: listed apart in the source

Cc1ccc(F)cc1CO[C@H]1CCc2ccc(N3CCNC[C@H]3C)nc21.O=C(O)C(O)C(O)C(=O)O [(S)-7-(5-Fluoro-2-methyl-benzyloxy)-2-((R)-2-methyl-piperazin-1-yl)-6,7-dihydro-5H-[1]pyrindine L(+)-tartrate]
increase in weight (moisture sorption) ([1]; at 90±2% relative humidity, isothermal (25.1±0.1° C.) moisture sorption from approximately 1% to 90% (±2%) humidity): Less than 0.5% | hygroscopicity assessment ([1]; dynamic vapor sorption, isothermal at 25° C.): non-hygroscopic

Cc1ccc(F)cc1CO[C@H]1CCc2ccc(N3CCNC[C@H]3C)nc21 [Formula I, (7S)-7-[(5-fluoro-2-methyl-benzyl)oxy]-2-[(2R)-2-methylpiperazin-1-yl]-6,7-dihydro-5H-cyclopenta[b]pyridine]
Ki [2]: 1.5 nM | Ki [3]: 4.5 nM | Ki [4]: 7.7 nM | functional activity at the 5-HT2c receptor [5]: potent, high affinity agonist | functional activity at the 5-HT2a receptor [6]: antagonist or weak partial agonist | functional activity at the 5-HT2b receptor [7]: antagonist

O=C1Cc2cc(CCN3CCN(c4nsc5ccccc45)CC3)c(Cl)cc2N1 [Ziprasidone, 5-[2-[4-(1,2-benzisothiazol-3-yl)piperazin-1-yl]ethyl]-6-chloroindolin-2-one]
half-life ([8]; in vivo): 6 to 7 h | oral bioavailability ([8]; taken with food): approximately 60% | protein binding [9]: extensive
